Data on nine compounds can be found in US5631261A, “Triazoloquinazolines, their preparation and use” (BASF Aktiengesellschaft, priority 1992, dated 1997).

Assay [1] concerns the target T1, NMDA receptor (N-methyl-D-aspartate) (Rattus norvegicus, UniProt P35439).
T1 construct: isolated membrane material from rat cerebra; from tissue; host or cells: rat cerebrum, washed membranes
In words: Binding of 3H-5,7-dichlorokynurenic acid (displacement from rat cerebral membranes). The note with it: buffer pH 7.4, on ice 30 minutes. Here is the method:
(§1) The pharmacological activity of the compounds I according to the invention was investigated on isolated membrane material from rat cerebra. To do this, the membrane material was treated in the presence of the compounds according to the invention with the radiolabeled substances ^3 H-2-amino-3-hydroxy-5-methyl-4-isoxazolepropionic acid (^3 H-AMPA) and ^3 H-5,7-dichlorokynurenic acid, the latter binding to specific receptors (AMPA receptor and NMDA receptor (N-methyl-D-aspartate)respectively). The radioactivity of the treated membranes was subsequently measured by scintillation counting. The amounts of bound ^3 H-AMPA and ^3 H-5,7-dichlorokynurenic acid, or in each case the amounts of these radiolabeled substances displaced, were determined from the bound radioactivity. The dissociation constant KI (I=inhibitor) resulting from this, which is a measure of the displacing effect of the agent according to the invention, was found by iterative nonlinear regression analysis using the Statistical Analysis System (SAS) on an IBM computer, similar to the Ligand program of P. J. Munson or D. Rodbard (Analytical Biochem. 107, 220 (1980), Ligand: Versatile Computerized Approach for Characterization of Ligand Binding Systems).
2. Binding of ^3 H-5,7-dichlorokynurenic acid
To prepare the membrane material, freshly removed rat cerebra were homogenized together with about 10 times the volume of a buffer solution A' composed of 50 mM TRIS-HCl and 10 mM EDTA, pH 7.4. The suspension was centrifuged at 48,000 g for 20 minutes. After removal of the supernatant liquid, the membrane material present in the sediment was washed twice by suspension in buffer solution A' and subsequent centrifugation for 20 minutes each time and suspension. After resuspension of the membranes in buffer solution A' and freezing in liquid nitrogen, the suspension was thawed again at 37° C. and, after another wash step, incubated at 37° C. for 15 minutes. The protein material was subsequently washed by centrifugation and suspension four times and was stored at -70° C. until used.
For the binding assay, the protein material was thawed at 37° C. and washed twice by centrifugation at 48,000 g (20 minutes) followed by suspension in a buffer solution B' composed of 50 mM TRIS-HCl, pH 7.4. Subsequently 0.15 mg of membrane material, 0.3 μCi of ^3 H-5,7-dichlorokynurenic acid (16 Ci/mmol) and compound I were dissolved in 1 ml of buffer solution B' and incubated on ice for 30 minutes. The incubated solution was centrifuged at 150,000 g for 2 minutes. After removal of the supernatant liquid, the sediments were suspended twice in 1.5 ml of cold buffer solution B' each time. After the radioactivity of the ^3 H-5,7-dichlorokynurenic acid bound to the membranes in the sediment had been measured, the KI was found by subjecting the displacement plots to regression analysis.

The target of another assay is AMPA receptor. In words: Binding of 3H-AMPA (displacement from rat cerebral membranes). The note with it: buffer pH 7.1, on ice 60 minutes. On the procedure:
as §1
1. Binding of ^3 H-2-amino-3-hydroxy-5-methyl-4-isoxanolpropionic acid (^3 H-AMPA)
To prepare the membranes, freshly removed rat cerebra were homogenized together with about 15 times the volume of a buffer solution A composed of 30 mM α,α,α-tris(hydroxymethyl)methylamine hydrochloride (TRIS-HCl) and 0.5 mM ethylenediaminetetraacetic acid (EDTA), pH 7.4, using an Ultra-TURRAX. The suspension was centrifuged at 48,000 g for 20 min. After removal of the supernatant liquid, the proteinaceous membrane material present in the sediment was washed three times by suspension in buffer solution A and subsequent centrifugation at 48,000 g for 20 minutes each time. The membrane material was then suspended in 15 times the volume of buffer solution A and incubated at 37° C. for 30 minutes. The protein material was subsequently washed twice by centrifugation and suspension and stored at -70° C. until used.
For the binding assay, the protein material was thawed at 37° C. and washed twice by centrifugation at 48,000 g (20 minutes) followed by suspension in a buffer solution B composed of 50 mM TRIS-HCl, 0.1 M potassium thiocyanate and 2.5 mM calcium chloride, pH 7.1. Subsequently 0.25 mg of membrane material, 0.1 μCi of ^3 H-AMPA (60 Ci/mmol) and compound I were dissolved in 1 ml of buffer solution B and incubated on ice for 60 minutes. The incubated solution was filtered through a CF/B filter (from Whathman) which had previously been treated with a 0.5% strength aqueous solution of polyethyleneimine for at least 2 hours. The filtrate [sic] was then washed with 5 ml of cold buffer solution B in order to separate bound and free ^3 H-AMPA from one another. After the radioactivity of the bound ^3 H-AMPA in the membrane material had been measured by scintillation counting, the KI was determined by subjecting the displacement plots to regression analysis.

Turning to `COC(=O)CCc1nc2c3cc(C)c(C)cc3[nH]c(=O)n2n1` [Example 4, Methyl 3-(8,9-dimethyl-1,2,4-triazolo[1,5-c]quinazolin-5-on-2)propionate], in assay [1], the Ki amounted to 1.75 µM. Consider `O=C(O)CCCc1nc2c3ccc([N+](=O)[O-])cc3[nH]c(=O)n2n1` [Example 13], for which the Ki at AMPA receptor was 3.4 µM; in assay [1], 0.5 µM.

On to `O=C(O)CCc1nc2c3ccc([N+](=O)[O-])cc3[nH]c(=O)n2n1` [Example 14], for which the Ki came out at 0.6 µM at AMPA receptor and 0.17 µM in assay [1].

Regarding `O=C(O)CCc1nc2c3cc([N+](=O)[O-])c([N+](=O)[O-])cc3[nH]c(=O)n2n1` [Example 15], the figures for the Ki (at AMPA receptor; in assay [1]) were 1 µM and 0.4 µM, respectively. In turn, `Cc1cc2[nH]c(=O)n3nc(CCC(=O)O)nc3c2cc1C` [Example 16] came in with a Ki in assay [1] of 0.1 µM. With `O=C(O)CCc1nc2c3ccc(C(F)(F)F)cc3[nH]c(=O)n2n1` [Example 18], the Ki on AMPA receptor is 0.6 µM; in assay [1] it was 0.65 µM. Taken in the same sequence, the figures for `O=C(O)CCc1nc2c3ccc4ccccc4c3[nH]c(=O)n2n1` [Example 19] were 0.7 µM and 0.3 µM. Regarding `O=C(O)CCc1nc2c3cc4ccccc4cc3[nH]c(=O)n2n1` [Example 20], the inhibition constant (Ki) was 0.6 µM on AMPA receptor and 0.4 µM in assay [1]. `Cc1cc2[nH]c(=O)n3nc(CCC(=O)NCc4ccccc4)nc3c2cc1C` [Example 21, 3-(8,9-Dimethyl-1,2,4-triazolo[1,5-c]quinazolin-5-on-2)propionic acid benzylamide]: affinity in assay [1] was put at a Ki of 0.8 µM.
